According to ChEMBL document CHEMBL1201861, “Genomics of Drug Sensitity in Cancer screening data, Wellcome Trust Sanger Institute”:
Values joined by “and” are separate entries in the source; they are usually repeats but may differ in a detail not shown here. Equal values may be shown once.

How the values were obtained:
Assay in all cases: cells
[1] = system: KOSC-2; format: functional, cell-based, Homo sapiens; settings: kosc-2;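 also: growth inhibition of KOSC-2 cells, read out by a cell viability assay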
Description: SANGER: Inhibition of human KOSC-2 cell growth in a cell viability assay.

[2] = system: TE-1; format: functional, cell-based, Homo sapiens;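 also: growth inhibition of the human TE-1 cell line, read out with a cell viability assay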
Description: SANGER: Inhibition of human TE-1 cell growth in a cell viability assay.

[3] = system: DB; format: functional, cell-based; settings: Homo sapiens
Description: SANGER: Inhibition of human DB cell growth in a cell viability assay.

[4] = system: LXF-289 cell line; format: functional, cell-based, Homo sapiens; settings: lxf-289
Description: SANGER: Inhibition of human LXF-289 cell growth in a cell viability assay.

[5] = system: U-87 MG; format: functional, cell-based, U-87MG ATCC; settings: Homo sapiens;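 also: growth inhibition of the cells measured with a viability assay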
Description: SANGER: Inhibition of human U-87-MG cell growth in a cell viability assay.

[6] = system: NTERA-2-cl-D1; format: functional, cell-based, Homo sapiens;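 also: inhibition of cell growth, measured with a cell viability assay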
Description: SANGER: Inhibition of human NTERA-S-cl-D1 cell growth in a cell viability assay.

[7] = system: RPMI-8226; format: functional, cell-based; settings: Homo sapiens
Description: SANGER: Inhibition of human RPMI-8226 cell growth in a cell viability assay.

[8] = system: RCM-1; format: functional, cell-based, Homo sapiens; settings: rcm-1;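 also: growth inhibition of the RCM-1 line, determined with a cell viability readout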
Description: SANGER: Inhibition of human RCM-1 cell growth in a cell viability assay.

[9] = system: T84; format: functional, cell-based, Homo sapiens; settings: t84;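 also: growth inhibition measured with a cell viability readout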
Description: SANGER: Inhibition of human T84 cell growth in a cell viability assay.

[10] = system: CAKI-1; format: functional, cell-based, Homo sapiens;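 also: growth inhibition of CAKI-1 cells, measured by a cell viability assay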
Description: SANGER: Inhibition of human CAKI-1 cell growth in a cell viability assay.

[11] = system: NCI-H1793; format: functional, cell-based, Homo sapiens; settings: nci-h1793;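 also: cell growth inhibition, read out by a cell viability assay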
Description: SANGER: Inhibition of human NCI-H1793 cell growth in a cell viability assay.

[12] = system: HCC 2998; format: functional, cell-based, Homo sapiens; settings: hcc 2998;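 also: growth inhibition of human HCC2998 cells, measured with a cell viability read-out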
Description: SANGER: Inhibition of human HCC2998 cell growth in a cell viability assay.

[13] = system: SK-MEL-30; format: functional, cell-based; settings: Homo sapiens;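 also: growth inhibition of SK-MEL-30 cells, determined with a cell viability assay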
Description: SANGER: Inhibition of human SK-MEL-30 cell growth in a cell viability assay.

[14] = system: EFM-19; format: functional, cell-based, Homo sapiens; settings: efm-19;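 also: growth inhibition of human EFM-19 cells, measured in a cell viability assay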
Description: SANGER: Inhibition of human EFM-19 cell growth in a cell viability assay.

[15] = system: FTC-133; format: functional, cell-based, Homo sapiens; settings: ftc-133
[16] = system: RPMI-7951; format: functional, cell-based, Homo sapiens
Description: SANGER: Inhibition of human RPMI-7951 cell growth in a cell viability assay.

[17] = system: ATN-1; format: functional, cell-based; settings: Homo sapiens;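 also: growth inhibition of human ATN-1 cells, read out with a cell viability assay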
Description: SANGER: Inhibition of human ATN-1 cell growth in a cell viability assay.

[18] = system: 8505C; format: functional, cell-based, Homo sapiens; settings: 8505c
Description: SANGER: Inhibition of human 8505C cell growth in a cell viability assay.

[19] = system: HT-144; format: functional, cell-based, Homo sapiens
Description: SANGER: Inhibition of human HT-144 cell growth in a cell viability assay.

[20] = system: RKO; format: functional, cell-based, Homo sapiens;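 also: growth inhibition of human RKO cells, read out with a cell viability assay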
Description: SANGER: Inhibition of human RKO cell growth in a cell viability assay.

[21] = system: NCI-N87; format: functional, cell-based, Homo sapiens; settings: nci-n87;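 also: growth inhibition of human NCI-N87 cells, read out with a cell viability assay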
Description: SANGER: Inhibition of human NCI-N87 cell growth in a cell viability assay.

[22] = system: LB771-HNC; format: functional, cell-based, Homo sapiens;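 also: growth inhibition of LB771-HNC human cells, read out with a cell viability assay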
Description: SANGER: Inhibition of human LB771-HNC cell growth in a cell viability assay.

[23] = system: ACHN; format: functional, cell-based, Homo sapiens; settings: achn;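 also: cell viability read-out used to gauge how strongly growth of human ACHN cells is suppressed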
Description: SANGER: Inhibition of human ACHN cell growth in a cell viability assay.

[24] = system: HAL-01; format: functional, cell-based; settings: Homo sapiens;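 also: growth inhibition of human HAL-01 cells, read out with a cell viability assay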
Description: SANGER: Inhibition of human HAL-01 cell growth in a cell viability assay.

[25] = system: HT-29; format: functional, cell-based, Homo sapiens; settings: ht-29;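 also: growth inhibition of human HT-29 cells, read out by a cell viability assay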
Description: SANGER: Inhibition of human HT-29 cell growth in a cell viability assay.

[26] = system: SH-4; format: functional, cell-based, Homo sapiens; settings: sh-4;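 also: growth inhibition of SH-4 cells, read out with a cell viability assay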
Description: SANGER: Inhibition of human SH-4 cell growth in a cell viability assay.

[27] = system: SF-539; format: functional, cell-based, Homo sapiens; settings: sf-539;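 also: Read-out is a cell viability assay, with IC50 reflecting inhibition of cell growth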
Description: SANGER: Inhibition of human SF539 cell growth in a cell viability assay.

[28] = system: DMS-273; format: functional, cell-based, Homo sapiens
Description: SANGER: Inhibition of human DMS-273 cell growth in a cell viability assay.

[29] = system: HCC2157; format: functional, cell-based; settings: Homo sapiens;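 also: growth inhibition of the cancer cell line, read out as cell viability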
Description: SANGER: Inhibition of human HCC2157 cell growth in a cell viability assay.

[30] = system: IGR-1; format: functional, cell-based, Homo sapiens; settings: igr-1;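 also: growth inhibition of human IGR-1 cells, read out with a cell viability assay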
Description: SANGER: Inhibition of human IGR-1 cell growth in a cell viability assay.

[31] = system: SW1088; format: functional, cell-based, Homo sapiens;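 also: growth inhibition of human SW1088 cells, read out by a cell viability assay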
Description: SANGER: Inhibition of human SW1088 cell growth in a cell viability assay.

[32] = system: Panc1005; format: functional, cell-based, Homo sapiens; settings: panc1005;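 also: growth inhibition of human PANC-10-05 cells, measured by a cell viability assay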
Description: SANGER: Inhibition of human PANC-10-05 cell growth in a cell viability assay.

[33] = system: SW780; format: functional, cell-based, Homo sapiens; settings: sw780;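 also: growth inhibition of the cells, read out with a cell viability assay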
Description: SANGER: Inhibition of human SW780 cell growth in a cell viability assay.

[34] = system: MDA-MB-231; format: functional, cell-based, Homo sapiens
Description: SANGER: Inhibition of human MDA-MB-231 cell growth in a cell viability assay.

[35] = system: TK-10; format: functional, cell-based, Homo sapiens; settings: tk-10;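 also: growth inhibition of TK-10 cells, read out in a cell viability assay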
Description: SANGER: Inhibition of human TK10 cell growth in a cell viability assay.

[36] = system: SAS; format: functional, cell-based, Homo sapiens; settings: sas;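 also: growth inhibition of SAS cells, read out with a cell viability assay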
Description: SANGER: Inhibition of human SAS cell growth in a cell viability assay.

[37] = system: TE-8; format: functional, cell-based, Homo sapiens; settings: te-8;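 also: growth inhibition of TE-8 cells, measured with a cell viability readout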
Description: SANGER: Inhibition of human TE-8 cell growth in a cell viability assay.

[38] = system: KYSE-510; format: functional, cell-based, Homo sapiens;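 also: cell viability readout used to measure how strongly growth of the cell line is suppressed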
Description: SANGER: Inhibition of human KYSE-510 cell growth in a cell viability assay.

[39] = system: EOL1; format: functional, cell-based; settings: Homo sapiens;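 also: growth inhibition of EoL-1 cells, read out by a cell viability assay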
Description: SANGER: Inhibition of human EoL-1-cell cell growth in a cell viability assay.

[40] = system: BB65-RCC; format: functional, cell-based, Homo sapiens;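 also: growth inhibition of the cell line, measured with a cell viability assay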
Description: SANGER: Inhibition of human BB65-RCC cell growth in a cell viability assay.

[41] = system: NCI-H292; format: functional, cell-based, Homo sapiens; settings: nci-h292;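 also: growth inhibition of NCI-H292 cells, read out with a cell viability assay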
Description: SANGER: Inhibition of human NCI-H292 cell growth in a cell viability assay.

[42] = system: NCI-H1395; format: functional, cell-based, Homo sapiens; settings: nci-h1395;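 also: cell viability assay read-out quantifying reduced proliferation of human NCI-H1395 cells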
Description: SANGER: Inhibition of human NCI-H1395 cell growth in a cell viability assay.

[43] = system: NCI-H1155; format: functional, cell-based; settings: Homo sapiens;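 also: cell growth inhibition measured by a viability assay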
Description: SANGER: Inhibition of human NCI-H1155 cell growth in a cell viability assay.

[44] = system: MZ7-mel; format: functional, cell-based, Homo sapiens;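 also: growth inhibition of human MZ7-mel cells, measured by a cell viability assay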
Description: SANGER: Inhibition of human MZ7-mel cell growth in a cell viability assay.

[45] = system: KINGS-1; format: functional, cell-based, Homo sapiens;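 also: cell viability assay measuring suppression of KINGS-1 cell growth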
Description: SANGER: Inhibition of human KINGS-1 cell growth in a cell viability assay.

[46] = system: SK-MEL-1; format: functional, cell-based; settings: Homo sapiens;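 also: growth inhibition of human SK-MEL-1 cells, read out by a cell viability assay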
Description: SANGER: Inhibition of human SK-MEL-1 cell growth in a cell viability assay.

[47] = system: BB30-HNC; format: functional, cell-based, Homo sapiens;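 also: growth inhibition of the cultured cell line, read out by a cell viability assay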
Description: SANGER: Inhibition of human BB30-HNC cell growth in a cell viability assay.

[48] = system: MZ1-PC; format: functional, cell-based, Homo sapiens; settings: mz1-pc;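 also: cell viability assay measuring growth inhibition of human MZ1-PC cells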
Description: SANGER: Inhibition of human MZ1-PC cell growth in a cell viability assay.

[49] = system: L-363; format: functional, cell-based; settings: Homo sapiens
Description: SANGER: Inhibition of human L-363 cell growth in a cell viability assay.

[50] = system: KMOE-2; format: functional, cell-based; settings: Homo sapiens;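 also: growth inhibition of human KMOE-2 cells, read out with a cell viability assay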
Description: SANGER: Inhibition of human KMOE-2 cell growth in a cell viability assay.

[51] = system: SW 954; format: functional, cell-based, Homo sapiens; settings: sw 954;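 also: growth inhibition of SW954 human cancer cells, read out as cell viability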
Description: SANGER: Inhibition of human SW954 cell growth in a cell viability assay.

**Q.** With `Cc1cc([C@@H](C)Nc2ccccc2C(=O)O)c2nc(N3CCOCC3)cc(=O)n2c1` [AZD-6482] as the compound, how does the IC50 [1] read?
**A.** > 5.12 µM

**Q.** And the IC50 ([2]; Homo sapiens, TE-1)?
**A.** > 5.12 µM

**Q.** What about the IC50 ([2]; te-1) of the same compound?
**A.** > 5.12 µM

**Q.** And the IC50 [3]?
**A.** > 5.12 µM

**Q.** What about the IC50 [4] of the same compound?
**A.** 1.55 µM and 4.06 µM

**Q.** What about the IC50 [5] of the same compound?
**A.** > 5.12 µM

**Q.** And the IC50 ([6]; Homo sapiens, NTERA-2-cl-D1)?
**A.** 2.19 µM

**Q.** And the IC50 ([6]; ntera-2-cl-d1)?
**A.** 4.38 µM

**Q.** And the IC50 [7]?
**A.** > 5.12 µM

**Q.** What about the IC50 [8] of the same compound?
**A.** > 5.12 µM

**Q.** What about the IC50 [9] of the same compound?
**A.** > 5.12 µM

**Q.** What about the IC50 ([10]; Homo sapiens, CAKI-1) of the same compound?
**A.** 3.17 µM

**Q.** What about the IC50 ([10]; caki-1) of the same compound?
**A.** 4.71 µM

**Q.** And the IC50 [11]?
**A.** > 5.12 µM

**Q.** And the IC50 [12]?
**A.** > 5.12 µM

**Q.** What about the IC50 [13] of the same compound?
**A.** > 5.12 µM

**Q.** And the IC50 [14]?
**A.** > 5.12 µM

**Q.** What about the IC50 [15] of the same compound?
**A.** > 5.12 µM

**Q.** And the IC50 ([16]; Homo sapiens, RPMI-7951)?
**A.** > 5.12 µM

**Q.** And the IC50 ([16]; rpmi-7951)?
**A.** > 5.12 µM

**Q.** And the IC50 [17]?
**A.** > 5.12 µM

**Q.** What about the IC50 [18] of the same compound?
**A.** > 5.12 µM

**Q.** And the IC50 ([19]; Homo sapiens, HT-144)?
**A.** > 5.12 µM

**Q.** What about the IC50 ([19]; ht-144) of the same compound?
**A.** > 5.12 µM

**Q.** And the IC50 ([20]; Homo sapiens, RKO)?
**A.** 3.06 µM

**Q.** And the IC50 ([20]; rko)?
**A.** 3.19 µM

**Q.** And the IC50 [21]?
**A.** > 5.12 µM

**Q.** And the IC50 ([22]; Homo sapiens, LB771-HNC)?
**A.** > 5.12 µM

**Q.** And the IC50 ([22]; lb771-hnc)?
**A.** > 5.12 µM

**Q.** And the IC50 [23]?
**A.** > 5.12 µM and 2.24 µM

**Q.** What about the IC50 [24] of the same compound?
**A.** 1.3 µM

**Q.** What about the IC50 [25] of the same compound?
**A.** > 5.12 µM

**Q.** What about the IC50 [26] of the same compound?
**A.** > 5.12 µM

**Q.** And the IC50 [27]?
**A.** > 5.12 µM

**Q.** And the IC50 ([28]; Homo sapiens, DMS-273)?
**A.** 4.83 µM

**Q.** What about the IC50 ([28]; dms-273) of the same compound?
**A.** 2.48 µM

**Q.** And the IC50 [29]?
**A.** 3.96 µM

**Q.** What about the IC50 [30] of the same compound?
**A.** > 5.12 µM

**Q.** And the IC50 ([31]; Homo sapiens, SW1088)?
**A.** 2.48 µM

**Q.** And the IC50 ([31]; sw1088)?
**A.** 2.01 µM

**Q.** And the IC50 [32]?
**A.** 2.1 µM and > 5.12 µM

**Q.** And the IC50 [33]?
**A.** > 5.12 µM

**Q.** What about the IC50 ([34]; Homo sapiens, MDA-MB-231) of the same compound?
**A.** > 5.12 µM

**Q.** And the IC50 ([34]; mda-mb-231)?
**A.** > 5.12 µM

**Q.** And the IC50 [35]?
**A.** > 5.12 µM

**Q.** What about the IC50 [36] of the same compound?
**A.** > 5.12 µM

**Q.** And the IC50 [37]?
**A.** > 5.12 µM

**Q.** And the IC50 ([38]; Homo sapiens, KYSE-510)?
**A.** > 5.12 µM

**Q.** And the IC50 ([38]; kyse-510)?
**A.** > 5.12 µM

**Q.** And the IC50 [39]?
**A.** > 5.12 µM

**Q.** What about the IC50 ([40]; Homo sapiens, BB65-RCC) of the same compound?
**A.** > 5.12 µM

**Q.** What about the IC50 ([40]; bb65-rcc) of the same compound?
**A.** > 5.12 µM

**Q.** What about the IC50 [41] of the same compound?
**A.** 3.65 µM and 1.56 µM

**Q.** What about the IC50 [42] of the same compound?
**A.** > 5.12 µM

**Q.** What about the IC50 [43] of the same compound?
**A.** > 5.12 µM

**Q.** And the IC50 ([44]; Homo sapiens, MZ7-mel)?
**A.** > 5.12 µM

**Q.** What about the IC50 ([44]; mz7-mel) of the same compound?
**A.** > 5.12 µM

**Q.** What about the IC50 ([45]; Homo sapiens, KINGS-1) of the same compound?
**A.** > 5.12 µM

**Q.** What about the IC50 ([45]; kings-1) of the same compound?
**A.** > 5.12 µM

**Q.** And the IC50 [46]?
**A.** > 5.12 µM

**Q.** What about the IC50 ([47]; Homo sapiens, BB30-HNC) of the same compound?
**A.** 4.89 µM

**Q.** And the IC50 ([47]; bb30-hnc)?
**A.** > 5.12 µM

**Q.** And the IC50 [48]?
**A.** > 5.12 µM

**Q.** What about the IC50 [49] of the same compound?
**A.** > 5.12 µM

**Q.** And the IC50 [50]?
**A.** > 5.12 µM

**Q.** What about the IC50 [51] of the same compound?
**A.** 4.5 µM and > 5.12 µM
